# Test system: STAT1 (phosphorylated at Tyr701) in NCI-H1373 cells
# Test: Phospho-STAT1 (Tyr701) LANCE Ultra TR-FRET detection assay
# Type: cell-based
# Details: Homo sapiens, NCI-H1373, 48 h, induction of pSTAT1 in NCI-H1373 cells, 48 hours incubation; normalized to 10 uM positive control and DMSO; 4-parameter fit; read-out: NH1373 pSTAT1 EC50
# Method: Phospho-STAT1 (Tyr701 LANCE Ultra TR-FRET Detection Assay
# LANCE Ultra phospho-STAT1 (Tyr701) kits are designed for the detection of phosphorylated STAT1 in cell lysates using a simple, homogeneous LANCE Ultra sandwich assay (Cat. #TRF4028M). This assay is intended for assessing compound induction of endogenous levels of cellular STAT1 (phosphorylated at Tyr701) in NCI-H1373 cells. The NCI-H1373 cells are cultured in RPMI 1640 media containing 10% heat inactivated FBS, GlutaMAX, 1% Penicillin-Streptomycin. An Echo acoustic liquid handler is used to transfer 60 nanoliters of compound dilutions using the Echo Qualified, 384-well polypropylene microplate clear flat bottom source plates into a Greiner (#781080) cell culture microplate. NCI-H1373 cells are seeded into these compound-spotted culture plates at 30,000 cells/well in a 60 uL volume in growth media. The plates are incubated in a 5% CO2 humidified incubator at 37° C. for 48 hours. […] Briefly, […] of supplemented lysis buffer is added to each well and allowed to shake for 1 hour at 400 rpm. Next, 5 ul of remixed antibody solutions (vol/vol) prepared in detection buffer are added to each well and allowed to incubate at room temperature overnight. After spinning the plate down at 300 rpm for 1 min, the plate is read on an EnVision plate reader set up for Eu3+ Cryptate and fluorescence emission is measured at two different wavelengths (665 nm and 620 nm). The HTRF ratio is then calculated ([…]) for each well to determine the amount of pSTAT1 in the cell lysate, and the data is then normalized to 10 uM (S)-5-((1-(3-oxo-3-(4-(5-(trifluoromethyl)pyrimidin-2-yl)piperazin-1-yl)propoxy)propan-2-yl)amino)-4-(trifluoromethyl)pyridazin-3(2H)-one positive and DMSO negative controls. The values were then plotted as a function of compound concentration and a 4-parameter fit was applied to derive the EC50 values.
row,SMILES,EC50 [nM]
1,"[2H]C([2H])([2H])Oc1cnc(-c2cc3c(F)cn(C[C@@H]4CCC[C@H](Nc5cn[nH]c(=O)c5C(F)(F)F)C4)c(=O)c3cc2F)nc1 [Example 45, 4,7-difluoro-2-[[(1R,3S)-3-[[6-oxo-5-(trifluoromethyl)-1H-pyridazin-4-yl]amino]cyclohexyl]methyl]-6-[5-(trideuteriomethoxy)pyrimidin-2-yl]isoquinolin-1-one]",10.5
2,"[2H]C([2H])([2H])Oc1cnc(-c2cc3c(F)cn(C[C@@H]4CCC[C@H](Nc5cn[nH]c(=O)c5C(F)(F)F)C4)c(=O)c3c(F)c2F)nc1 [Example 46, 4,7,8-trifluoro-2-[[(1R,3S)-3-[[6-oxo-5-(trifluoromethyl)-1H-pyridazin-4-yl]amino]cyclohexyl]methyl]-6-[5-(trideuteriomethoxy)pyrimidin-2-yl]isoquinolin-1-one]",1.19
3,"O=c1[nH]ncc(N[C@H]2CCC[C@@H](Cn3ccc4cc(-c5ncc(OCCO)cn5)c(F)c(F)c4c3=O)C2)c1C(F)(F)F [Example 47, 7,8-difluoro-6-(5-(2-hydroxyethoxy)pyrimidin-2-yl)-2-(((1R,3S)-3-((6-oxo-5-(trifluoromethyl)-1,6-dihydropyridazin-4-yl)amino)cyclohexyl)methyl)isoquinolin-1(2H)-one]",4.86
4,"CC(C)(O)c1cnc(-c2cc3c(F)cn(C[C@@H]4CCC[C@H](Oc5cn[nH]c(=O)c5C(F)(F)F)C4)c(=O)c3c(F)c2F)nc1 [Example 48, 4,7,8-trifluoro-6-(5-(2-hydroxypropan-2-yl)pyrimidin-2-yl)-2-(((1R,3S)-3-((6-oxo-5-(trifluoromethyl)-1,6-dihydropyridazin-4-yl)oxy)cyclohexyl)methyl)isoquinolin-1(2H)-one]",1.03
5,"O=c1[nH]ncc(O[C@H]2CCC[C@@H](Cn3cc(F)c4cc(-c5ncc(OC(F)(F)F)cn5)c(F)c(F)c4c3=O)C2)c1C(F)(F)F [Example 49, 4,7,8-trifluoro-2-(((1R,3S)-3-((6-oxo-5-(trifluoromethyl)-1,6-dihydropyridazin-4-yl)oxy)cyclohexyl)methyl)-6-(5-(trifluoromethoxy)pyrimidin-2-yl)isoquinolin-1(2H)-one]",4.89
6,"O=c1[nH]ncc(O[C@H]2CCC[C@@H](Cn3cc(F)c4cc(-c5ncc(OC(F)F)cn5)c(F)c(F)c4c3=O)C2)c1C(F)(F)F [Example 50, 6-(5-(difluoromethoxy)pyrimidin-2-yl)-4,7,8-trifluoro-2-(((1R,3S)-3-((6-oxo-5-(trifluoromethyl)-1,6-dihydropyridazin-4-yl)oxy)cyclohexyl)methyl)isoquinolin-1(2H)-one]",1.29
7,"[2H]C([2H])([2H])Oc1cnc(-c2cc3c(F)cn(C[C@@H]4CCC[C@H](Oc5cn[nH]c(=O)c5C(F)(F)F)C4)c(=O)c3c(F)c2F)nc1 [Example 51, 4,7,8-trifluoro-6-(5-(methoxy-d3)pyrimidin-2-yl)-2-(((1R,3S)-3-((6-oxo-5-(trifluoromethyl)-1,6-dihydropyridazin-4-yl)oxy)cyclohexyl)methyl)isoquinolin-1(2H)-one]",1.22
8,"O=c1[nH]ncc(O[C@H]2CCC[C@@H](Cn3cc(F)c4cc(-c5ncc(C(F)F)cn5)c(F)c(F)c4c3=O)C2)c1C(F)(F)F [Example 52, 6-(5-(difluoromethyl)pyrimidin-2-yl)-4,7,8-trifluoro-2-(((1R,3S)-3-((6-oxo-5-(trifluoromethyl)-1,6-dihydropyridazin-4-yl)oxy)cyclohexyl)methyl)isoquinolin-1(2H)-one]",1.22
9,"COc1cnc(-c2cc3c(F)cn(C[C@@H]4CCC[C@H](Oc5cn[nH]c(=O)c5C(F)(F)F)C4)c(=O)c3c(F)c2F)nc1 [Example 53, 4,7,8-trifluoro-6-(5-methoxypyrimidin-2-yl)-2-(((1R,3S)-3-((6-oxo-5-(trifluoromethyl)-1,6-dihydropyridazin-4-yl)oxy)cyclohexyl)methyl)isoquinolin-1(2H)-one]",2.09
10,"O=c1[nH]ncc(O[C@H]2CCC[C@@H](Cn3ccc4cc(-c5ncc(C(F)F)cn5)c(F)c(F)c4c3=O)C2)c1C(F)(F)F [Example 54, 6-(5-(difluoromethyl)pyrimidin-2-yl)-7,8-difluoro-2-(((1R,3S)-3-((6-oxo-5-(trifluoromethyl)-1,6-dihydropyridazin-4-yl)oxy)cyclohexyl)methyl)isoquinolin-1(2H)-one]",2.38
11,"CC(C)(O)c1cnc(-c2cc3ccn(C[C@@H]4CCC[C@H](Oc5cn[nH]c(=O)c5C(F)(F)F)C4)c(=O)c3c(F)c2F)nc1 [Example 55, 7,8-difluoro-6-(5-(2-hydroxypropan-2-yl)pyrimidin-2-yl)-2-(((1R,3S)-3-((6-oxo-5-(trifluoromethyl)-1,6-dihydropyridazin-4-yl)oxy)cyclohexyl)methyl)isoquinolin-1(2H)-one]",1.56
12,"CC(F)(F)c1cnc(-c2cc3ccn(C[C@@H]4CCC[C@H](Oc5cn[nH]c(=O)c5C(F)(F)F)C4)c(=O)c3c(F)c2F)nc1 [Example 56, 6-(5-(1,1-difluoroethyl)pyrimidin-2-yl)-7,8-difluoro-2-(((1R,3S)-3-((6-oxo-5-(trifluoromethyl)-1,6-dihydropyridazin-4-yl)oxy)cyclohexyl)methyl)isoquinolin-1(2H)-one]",0.915
13,"CC(C)(O)c1cnc(-c2cc3ccn(C[C@@H]4CCC[C@H](Oc5cn[nH]c(=O)c5C(F)(F)F)C4)c(=O)c3cc2F)nc1 [Example 57, 7-fluoro-6-(5-(2-hydroxypropan-2-yl)pyrimidin-2-yl)-2-(((1R,3S)-3-((6-oxo-5-(trifluoromethyl)-1,6-dihydropyridazin-4-yl)oxy)cyclohexyl)methyl)isoquinolin-1(2H)-one]",1.82
14,"COc1cnc(-c2cc3c(Cl)cn(C[C@@H]4CCC[C@H](Nc5cn[nH]c(=O)c5C(F)(F)F)C4)c(=O)c3cc2F)nc1 [Example 58, 4-chloro-7-fluoro-6-(5-methoxypyrimidin-2-yl)-2-[[(1R,3S)-3-[[6-oxo-5-(trifluoromethyl)-1H-pyridazin-4-yl]amino]cyclohexyl]methyl]isoquinolin-1-one]",5.91
15,"O=c1[nH]ncc(N[C@H]2CCC[C@@H](Cn3cc(Cl)c4cc(-c5nc6ccccn6n5)c(F)cc4c3=O)C2)c1C(F)(F)F [Example 59, 6-([1,2,4]triazolo[1,5-a]pyridin-2-yl)-4-chloro-7-fluoro-2-(((1R,3S)-3-((6-oxo-5-(trifluoromethyl)-1,6-dihydropyridazin-4-yl)amino)cyclohexyl)methyl)isoquinolin-1(2H)-one]",2.02
16,"O=c1[nH]ncc(N[C@H]2CCC[C@@H](Cn3cc(Cl)c4cc(-c5ncc(C(F)F)cn5)c(F)cc4c3=O)C2)c1C(F)(F)F [Example 60, 4-chloro-6-(5-(difluoromethyl)pyrimidin-2-yl)-7-fluoro-2-(((1R,3S)-3-((6-oxo-5-(trifluoromethyl)-1,6-dihydropyridazin-4-yl)amino)cyclohexyl)methyl)isoquinolin-1(2H)-one]",6.23
17,O=c1[nH]ncc(N[C@H]2CCC[C@@H](Cn3cc(Cl)c4cc(-c5ncc(C(F)F)cn5)c(F)c(F)c4c3=O)C2)c1C(F)(F)F [Example 61],1.33
18,"O=c1[nH]ncc(N[C@H]2C[C@@H](O)C[C@@H](Cn3ccc4cc(-c5ncc(C(F)(F)F)cn5)c(F)cc4c3=O)C2)c1C(F)(F)F [Example 62, 7-fluoro-2-[[(1S,3S,5R)-3-hydroxy-5-[[6-oxo-5-(trifluoromethyl)-1H-pyridazin-4-yl]amino]cyclohexyl]methyl]-6-[5-(trifluoromethyl)pyrimidin-2-yl]isoquinolin-1-one]",90
19,"O=c1[nH]ncc(N[C@H]2CCC[C@@](O)(Cn3ccc4cc(-c5ncc(C(F)(F)F)cn5)c(F)cc4c3=O)C2)c1C(F)(F)F [Example 63, 7-fluoro-2-[[(1S,3S)-1-hydroxy-3-[[6-oxo-5-(trifluoromethyl)-1H-pyridazin-4-yl]amino]cyclohexyl]methyl]-6-[5-(trifluoromethyl)pyrimidin-2-yl]isoquinolin-1-one]",1.87
20,"O=c1[nH]ncc(N[C@H]2CCO[C@@H](Cn3ccc4cc(-c5nc6ccccn6n5)c(F)cc4c3=O)C2)c1C(F)(F)F [Example 64, 7-fluoro-2-[[(2R,4S)-4-[[6-oxo-5-(trifluoromethyl)-1H-pyridazin-4-yl]amino]tetrahydropyran-2-yl]methyl]-6-([1,2,4]triazolo[1,5-a]pyridin-2-yl)isoquinolin-1-one]",36.1
21,"O=c1[nH]ncc(N[C@H]2CCO[C@@H](Cn3ccc4cc(-c5nc6ccccn6n5)c(F)c(F)c4c3=O)C2)c1C(F)(F)F [Example 65, 7,8-difluoro-2-[[(2R,4S)-4-[[6-oxo-5-(trifluoromethyl)-1H-pyridazin-4-yl]amino]tetrahydropyran-2-yl]methyl]-6-([1,2,4]triazolo[1,5-a]pyridin-2-yl)isoquinolin-1-one1-one]",20.3

# Source: patent publication US20250100998A1, “PARP7 INHIBITORS” (Gilead Sciences, Inc., priority 2023, published 2025)
